Here are results for 23 compounds from patent US9771369B2, “Compounds and methods for kinase modulation, and indications therefor” (Plexxikon Inc., priority 2014, dated 2017).

SMILES strings stand for the structures.

Chain of c-kit mutant D816V (P10721 other isoform, or with tags, fused parts or gaps D816V/del 694-753): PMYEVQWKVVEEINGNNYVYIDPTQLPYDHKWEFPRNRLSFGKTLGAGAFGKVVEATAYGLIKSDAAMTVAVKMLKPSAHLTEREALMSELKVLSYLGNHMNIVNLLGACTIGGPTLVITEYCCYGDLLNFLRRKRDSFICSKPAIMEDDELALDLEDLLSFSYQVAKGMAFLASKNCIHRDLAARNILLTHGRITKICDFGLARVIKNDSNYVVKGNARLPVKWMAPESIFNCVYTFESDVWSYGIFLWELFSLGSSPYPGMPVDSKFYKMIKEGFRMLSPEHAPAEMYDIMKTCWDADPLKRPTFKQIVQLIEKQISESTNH

The target in this test is c-kit mutant D816V (Homo sapiens (Human), UniProt P10721, D816V/DEL694-753). Kind of test: c-Kit mutant D816V biochemical assay (AlphaScreen kinase activity). On the procedure:
The c-kit mutant D816V (or kinase domain thereof) is an active kinase in AlphaScreen. IC50 values are determined with respect to inhibition of c-Kit mutant D816V kinase activity, where inhibition of phosphorylation of a peptide substrate is measured as a function of compound concentration. Compounds to be tested were dissolved in DMSO to a concentration of 30 mM. These were diluted […] of DMSO (4 mM) and 1 μl was added to an assay plate. These were then serially diluted 1:3 (50 μl to […] DMSO) for a total of 8 points. Plates were prepared such that each kinase reaction is […] in 1× kinase buffer (25 mM HEPES, pH 7.2, 8 mM MgCl2, 2 mM MnCl2, 50 mM NaCl, 0.01% Brij, 1 mM DTT, 0.01% BSA), 5% DMSO and 10 μM ATP. Substrate was 30 nM biotin-(E4Y)10 (EMD Millipore, Cat#12-440). C-kit mutant D816V kinase was at 0.75 ng per sample. After incubation of the kinase reaction for 30 minutes at room temperature, 5 μl of donor beads (Streptavidin coated beads (Perkin Elmer Life Science) final concentration 7.5 μg/ml) in stop buffer (25 mM Hepes pH 7.5, 100 mM EDTA, 0.01% BSA) was added, the sample was mixed and incubated for 30 minutes at room temperature before adding […] of acceptor beads (PY30 coated beads (Perkin Elmer Life Science) final concentration 7.5 μg/ml) in stop buffer. The samples were incubated for 60 minutes at room temperature and the signal per well was read on EnVision reader. Phosphorylated substrate results in binding of the PY30 antibody and association of the donor and acceptor beads such that signal correlates with kinase activity. The signal vs. compound concentration was used to determine the IC50.
Recombinant c-kit mutant D816V (residues 551-934, kinase insertion domain residues 694-753 deleted) with a 6×-histidine N-terminal tag (SEQ ID NO: 3) was expressed in E. coli Arctic Express (DE3) RIL (Stratagene). Cells were grown in Terrific Broth (TB) media to an OD600 of 0.6 at 37° C. at which temperature was reduced to 10° C., protein was induced with 1.0 mM IPTG for 18 hours and harvested by centrifugation at 8000×g for 30 minutes. Cells were re-suspended in 0.1M KPO4 pH 8.0, 250 mM NaCl, 10% Glycerol, 0.75% NP-40, 25 mM Imidazole, 5 mM BME with 0.2 mg/ml Lysosyme, 2.0 mM PMSF, 25 μg/ml DNAse I, incubated in ice for 30 minutes and lyzed with a cell disruptor (MicroFluidics). The lysate was clarified by centrifugation at 30,000×g for 2 hours. The protein was captured with Talon resin (Clontech). Contaminating proteins were washed off with 25 mM Tris-HCl pH 8.3, 250 mM NaCl, 15% Glycerol, 1% Triton X-100, and protein eluted using 100 mM EDTA. The protein was further purified using Gel Filtration column 26/600 Superdex 300 (GE) in 50 mM Tris-HCl , pH 8.0, 250 mM NaCl, 15% Glycerol, 5 mM BME. The protein was aliquoted and flash-frozen in liquid Nitrogen.
For orientation: IC50 means the concentration needed to halve the response being measured. As to `COc1cc(-c2cc3c(N4CCC(c5nc(C)c(-c6ccc(F)cc6)[nH]5)CC4)ncnc3[nH]2)ccn1` [P-3007, 4-[4-[5-(4-fluorophenyl)-4-methyl-1H-imidazol-2-yl]-1-piperidyl]-6-(2-methoxy-4-pyridyl)-7H-pyrrolo[2,3-d]pyrimidine], the IC50 is 0.0001 to 1 µM. Consider `COc1cc(-c2cc3c(N4CCC(c5nc(C6CC6)c(-c6ccccc6)[nH]5)CC4)ncnc3[nH]2)ccn1` [P-3008, 4-[4-(4-cyclopropyl-5-phenyl-1H-imidazol-2-yl)-1-piperidyl]-6-(2-methoxy-4-pyridyl)-7H-pyrrolo[2,3-d]pyrimidine], for which the IC50 fell in the range of 0.0001 to 1 µM. Regarding `Fc1ccc(-c2cc3c(N4CCC(c5nc(C6CC6)c(-c6ccccc6)[nH]5)CC4)ncnc3[nH]2)cc1` [P-3009, 4-[4-(4-cyclopropyl-5-phenyl-1H-imidazol-2-yl)-1-piperidyl]-6-(4-fluorophenyl)-7H-pyrrolo[2,3-d]pyrimidine], the IC50 was in the range of 0.0001 to 1 µM. Consider `N#Cc1ccc(-c2cc3c(N4CCC(c5nc(C6CC6)c(-c6ccccc6)[nH]5)CC4)ncnc3[nH]2)cc1` [P-3010, 4-[4-[4-(4-cyclopropyl-5-phenyl-1H-imidazol-2-yl)-1-piperidyl]-7H-pyrrolo[2,3-d]pyrimidin-6-yl]benzonitrile], for which the IC50 lay in the range of 0.0001 to 1 µM. `Cc1nc(C2CCN(c3ncnc4[nH]c(-c5ccc(F)cc5)cc34)CC2)[nH]c1-c1cccc(OC(F)(F)F)c1` [P-3011, 6-(4-fluorophenyl)-4-[4-[4-methyl-5-[3-(trifluoromethoxy)phenyl]-1H-imidazol-2-yl]-1-piperidyl]-7H-pyrrolo[2,3-d]pyrimidine] returned a 50% inhibitory concentration (IC50) of 0.0001 to 1 µM. Turning to `CCOc1cc(-c2[nH]c(C3CCN(c4ncnc5[nH]c(-c6ccc(C#N)cc6)cc45)CC3)nc2C)ccc1C` [P-3095, 4-[4-[4-[5-(3-ethoxy-4-methyl-phenyl)-4-methyl-1H-imidazol-2-yl]-1-piperidyl]-7H-pyrrolo[2,3-d]pyrimidin-6-yl]benzonitrile], the half-inhibitory concentration (IC50) fell in the range of 0.0001 to 1 µM. Consider `CCOc1cc(-c2[nH]c(C3CCN(c4ncnc5[nH]c(-c6ccnc(OC)c6)cc45)CC3)nc2C)ccc1C` [P-3096, 4-[4-[5-(3-ethoxy-4-methyl-phenyl)-4-methyl-1H-imidazol-2-yl]-1-piperidyl]-6-(2-methoxy-4-pyridyl)-7H-pyrrolo[2,3-d]pyrimidine], for which the IC50 was 0.0001 to 1 µM.

With `Cc1nc(C2CCN(c3ncnc4[nH]c(-c5ccnc(C(F)(F)F)c5)cc34)CC2)[nH]c1-c1ccccc1` [P-3097, 4-[4-(4-methyl-5-phenyl-1H-imidazol-2-yl)-1-piperidyl]-6-[2-(trifluoromethyl)-4-pyridyl]-7H-pyrrolo[2,3-d]pyrimidine], the IC50 fell in the range of 0.0001 to 1 µM. For `Cc1nc(C2CCN(c3ncnc4[nH]c(-c5cccc(C(F)(F)F)c5)cc34)CC2)[nH]c1-c1ccccc1` [P-3098, 4-[4-(4-methyl-5-phenyl-1H-imidazol-2-yl)-1-piperidyl]-6-[3-(trifluoromethyl)phenyl]-7H-pyrrolo[2,3-d]pyrimidine], the IC50 fell in the range of 0.0001 to 1 µM. In turn, `CCOc1ccc(-c2[nH]c(C3(C)CCN(c4ncnc5[nH]c(C)cc45)CC3)nc2C)cc1C` [P-3099, 4-[4-[5-(4-ethoxy-3-methyl-phenyl)-4-methyl-1H-imidazol-2-yl]-4-methyl-1-piperidyl]-6-methyl-7H-pyrrolo[2,3-d]pyrimidine] registered an IC50 of 0.0001 to 1 µM. Consider `CCc1ccc(-c2[nH]c(C3(C)CCN(c4ncnc5[nH]c(C)cc45)CC3)nc2C)cc1` [P-3101, 4-[4-[5-(4-ethylphenyl)-4-methyl-1H-imidazol-2-yl]-4-methyl-1-piperidyl]-6-methyl-7H-pyrrolo[2,3-d]pyrimidine], for which the half-maximal inhibitory concentration (IC50) fell in the range of 0.0001 to 1 µM. Compound `COc1ccc(-c2[nH]c(C3(C)CCN(c4ncnc5[nH]c(C)cc45)CC3)nc2C)cc1C` [P-3102, 4-[4-[5-(4-methoxy-3-methyl-phenyl)-4-methyl-1H-imidazol-2-yl]-4-methyl-1-piperidyl]-6-methyl-7H-pyrrolo[2,3-d]pyrimidine] yielded an IC50 of 0.0001 to 1 µM. Take `COc1cc(-c2cc3c(N4CCC(c5nc(C)c(-c6ccc(C)c(OC)c6)[nH]5)CC4)ncnc3[nH]2)ccn1` [P-3104, 4-[4-[5-(3-methoxy-4-methyl-phenyl)-4-methyl-1H-imidazol-2-yl]-1-piperidyl]-6-(2-methoxy-4-pyridyl)-7H-pyrrolo[2,3-d]pyrimidine]: the IC50 was 0.0001 to 1 µM. `COc1cc(-c2[nH]c(C3(C)CCN(c4ncnc5[nH]c(C)cc45)CC3)nc2C)ccc1C` [P-3105, 4-[4-[5-(3-methoxy-4-methyl-phenyl)-4-methyl-1H-imidazol-2-yl]-4-methyl-1-piperidyl]-6-methyl-7H-pyrrolo[2,3-d]pyrimidine] gave an IC50 of 0.0001 to 1 µM.

For the compound `COc1cc(-c2[nH]c(C3CCN(c4ncnc5[nH]c(-c6ccc(C#N)cc6)cc45)CC3)nc2C)ccc1C` [P-3106, 4-[4-[4-[5-(3-methoxy-4-methyl-phenyl)-4-methyl-1H-imidazol-2-yl]-1-piperidyl]-7H-pyrrolo[2,3-d]pyrimidin-6-yl]benzonitrile], the IC50 fell in the range of 0.0001 to 1 µM. As for `Cc1nc(C2CCN(c3ncnc4[nH]c(-c5cnn(C(F)F)c5)cc34)CC2)[nH]c1-c1ccc(F)cc1` [P-3107, 6-[1-(difluoromethyl)pyrazol-4-yl]-4-[4-[5-(4-fluorophenyl)-4-methyl-1H-imidazol-2-yl]-1-piperidyl]-7H-pyrrolo[2,3-d]pyrimidine], the figure is 0.0001 to 1 µM. As for `COc1ccc(-c2[nH]c(C3CCN(c4ncnc5[nH]c(-c6cnn(C(F)F)c6)cc45)CC3)nc2C)cc1` [P-3108, 6-[1-(difluoromethyl)pyrazol-4-yl]-4-[4-[5-(4-methoxyphenyl)-4-methyl-1H-imidazol-2-yl]-1-piperidyl]-7H-pyrrolo[2,3-d]pyrimidine], the IC50 lay within 0.0001 to 1 µM.

In turn, `Cc1nc(C2CCN(c3ncnc4[nH]c(-c5ccc(F)cc5)cc34)CC2)[nH]c1-c1ccc2c(c1)OC(F)(F)O2` [P-3109, 4-[4-[5-(2,2-difluoro-1,3-benzodioxol-5-yl)-4-methyl-1H-imidazol-2-yl]-1-piperidyl]-6-(4-fluorophenyl)-7H-pyrrolo[2,3-d]pyrimidine] displayed an IC50 of 0.0001 to 1 µM. In turn, `Cc1nc(C2CCN(c3ncnc4[nH]c(-c5ccc(C#N)cc5)cc34)CC2)[nH]c1-c1ccc2c(c1)OC(F)(F)O2` [P-3110, 4-[4-[4-[5-(2,2-difluoro-1,3-benzodioxol-5-yl)-4-methyl-1H-imidazol-2-yl]-1-piperidyl]-7H-pyrrolo[2,3-d]pyrimidin-6-yl]benzonitrile] yielded an IC50 of 0.0001 to 1 µM.

For `COc1cc(-c2cc3c(N4CCC(c5nc(C)c(-c6ccc7c(c6)OC(F)(F)O7)[nH]5)CC4)ncnc3[nH]2)ccn1` [P-3111, 4-[4-[5-(2,2-difluoro-1,3-benzodioxol-5-yl)-4-methyl-1H-imidazol-2-yl]-1-piperidyl]-6-(2-methoxy-4-pyridyl)-7H-pyrrolo[2,3-d]pyrimidine], the IC50 lay in the range of 0.0001 to 1 µM. On to `COc1ccc(-c2[nH]c(C3CCN(c4ncnc5[nH]c(-c6ccc(C#N)cc6)cc45)CC3)nc2C)cn1` [P-3112, 4-[4-[4-[5-(6-methoxy-3-pyridyl)-4-methyl-1H-imidazol-2-yl]-1-piperidyl]-7H-pyrrolo[2,3-d]pyrimidin-6-yl]benzonitrile], for which the IC50 was 0.0001 to 1 µM.

Take `Cc1nc(C2CCN(c3ncnc4[nH]c(-c5ccc(C#N)cc5)cc34)CC2)[nH]c1-c1ccc(OC(F)F)cc1` [P-3113, 4-[4-[4-[5-[4-(difluoromethoxy)phenyl]-4-methyl-1H-imidazol-2-yl]-1-piperidyl]-7H-pyrrolo[2,3-d]pyrimidin-6-yl]benzonitrile]: the IC50 is 0.0001 to 1 µM. `COc1cccc(-c2[nH]c(C3CCN(c4ncnc5[nH]c(-c6cnn(C(F)F)c6)cc45)CC3)nc2C)c1` [P-3114, 6-[1-(difluoromethyl)pyrazol-4-yl]-4-[4-[5-(3-methoxyphenyl)-4-methyl-1H-imidazol-2-yl]-1-piperidyl]-7H-pyrrolo[2,3-d]pyrimidine]: the IC50 lay within 0.0001 to 1 µM.
